Measurements taken from publication PMC4823724 (Scientific Reports, 2016).

Legend:
[1] = target: T1, XOC_4190ΔG
T1 construct: gene XOC_4190

[2] = target: T2, (UniProt G7TKC9); assay: biochemical
T2 construct: gene XOC_4190

[3] = target: T3, (UniProt G7TDB2); assay: biochemical
T3 construct: gene XOC_2102
T3 sequence (G7TDB2 1-689): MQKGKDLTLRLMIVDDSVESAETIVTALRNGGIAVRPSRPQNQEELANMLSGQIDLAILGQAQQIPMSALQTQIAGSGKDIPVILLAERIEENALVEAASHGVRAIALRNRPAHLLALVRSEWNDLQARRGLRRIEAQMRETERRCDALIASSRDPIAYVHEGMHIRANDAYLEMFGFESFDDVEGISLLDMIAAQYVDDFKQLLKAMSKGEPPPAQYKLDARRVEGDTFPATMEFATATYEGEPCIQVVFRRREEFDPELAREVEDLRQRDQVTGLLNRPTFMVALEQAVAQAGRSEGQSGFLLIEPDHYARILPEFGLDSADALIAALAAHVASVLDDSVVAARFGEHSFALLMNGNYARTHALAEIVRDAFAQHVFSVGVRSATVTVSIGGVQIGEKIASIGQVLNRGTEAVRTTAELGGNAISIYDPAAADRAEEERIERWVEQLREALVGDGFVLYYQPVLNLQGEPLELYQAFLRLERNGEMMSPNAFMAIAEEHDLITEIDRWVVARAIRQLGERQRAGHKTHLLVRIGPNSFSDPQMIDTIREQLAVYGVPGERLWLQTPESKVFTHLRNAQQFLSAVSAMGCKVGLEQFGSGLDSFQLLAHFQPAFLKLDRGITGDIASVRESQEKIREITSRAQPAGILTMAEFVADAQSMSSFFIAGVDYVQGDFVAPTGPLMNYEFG

T2 sequence (G7TKC9 1-656 limits assumed): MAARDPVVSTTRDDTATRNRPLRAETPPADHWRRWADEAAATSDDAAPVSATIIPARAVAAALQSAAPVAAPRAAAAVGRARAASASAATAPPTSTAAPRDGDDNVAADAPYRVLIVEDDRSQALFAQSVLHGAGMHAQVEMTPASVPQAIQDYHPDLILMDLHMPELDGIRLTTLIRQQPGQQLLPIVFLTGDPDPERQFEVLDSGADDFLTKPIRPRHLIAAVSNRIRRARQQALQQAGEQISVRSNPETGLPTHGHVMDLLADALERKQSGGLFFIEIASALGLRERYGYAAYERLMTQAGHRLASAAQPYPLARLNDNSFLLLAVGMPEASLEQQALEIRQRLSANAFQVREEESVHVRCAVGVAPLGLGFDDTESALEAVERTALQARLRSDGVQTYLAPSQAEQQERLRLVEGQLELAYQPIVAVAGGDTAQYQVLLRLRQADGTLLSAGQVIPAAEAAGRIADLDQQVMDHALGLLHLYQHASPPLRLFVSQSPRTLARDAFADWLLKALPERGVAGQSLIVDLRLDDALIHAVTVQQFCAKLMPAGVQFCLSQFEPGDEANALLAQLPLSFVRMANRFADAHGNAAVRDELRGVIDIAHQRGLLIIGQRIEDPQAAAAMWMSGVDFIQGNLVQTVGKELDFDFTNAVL

Compound: Nc1nc2c(ncn2[C@@H]2O[C@@H]3COP(=O)(O)O[C@H]4[C@@H](O)[C@H](n5cnc6c(=O)[nH]c(N)nc65)O[C@@H]4COP(=O)(O)O[C@H]3[C@H]2O)c(=O)[nH]1 [c-di-GMP]
- Kd [1]: 4.46 ± 0.28 µM
- Kd [2]: 4.59 ± 0.36 µM
- Kd [3]: 2.9 ± 0.13 µM
